Assay results from ChEMBL document CHEMBL1150173, “Antiviral saponins from Tieghemella heckelii” (J Nat Prod, 2002).
Activity calls are given as the source filed them. The rule behind the calls is not given here.

Key:
HeLa = experiment: Cytotoxicity against human HeLa cells expressing CD4+ construct at 20 uM after 3 days by MTT assay; assay type: cell-based; conditions: 72 h
[1] = system: Human immunodeficiency virus 1; experiment: Inhibition of HIV1 in wild type CHO cells mediated human HeLa-CD4+ cell fusion assessed as inhibition of syncytium formation at 20 uM by cell-cell fusion assay; assay type: functional

Structure (SMILES)	Activity (HeLa)	Activity [1]	inhibition at 20 µM ([1]; Human immunodeficiency virus 1, CHO) [%]
C[C@@H]1O[C@@H](O[C@@H]2[C@@H](O)[C@H](O[C@@H]3[C@@H](O)[C@@H](O)[C@H](O[C@H]4[C@H](OC(=O)[C@]56CCC(C)(C)C[C@H]5C5=CC[C@@H]7[C@@]8(C)C[C@H](O)[C@H](O[C@@H]9O[C@H](C(=O)O)[C@@H](O)[C@H](O)[C@H]9O)[C@@](C)(CO)[C@@H]8[C@H](O)C[C@@]7(C)[C@]5(C)C[C@H]6O)OC[C@H](O)[C@@H]4O)O[C@H]3C)OC[C@H]2O)[C@H](O)[C@H](O)[C@H]1O [TIEGHEMELIN]	Non-toxic	–	–
CC1(C)CC[C@]2(C(=O)O)[C@H](O)C[C@]3(C)C(=CC[C@@H]4[C@@]5(C)C[C@H](O)[C@H](O[C@@H]6O[C@H](C(=O)O)[C@@H](O)[C@H](O)[C@H]6O)[C@@](C)(CO)[C@@H]5[C@H](O)C[C@]43C)[C@@H]2C1	–	inactive	–
CC1(C)CC[C@]2(C(=O)O)[C@H](O)C[C@]3(C)C(=CC[C@@H]4[C@@]5(C)C[C@H](O)[C@H](O[C@@H]6O[C@H](CO)[C@@H](O)[C@H](O)[C@H]6O)[C@@](C)(CO)[C@@H]5[C@H](O)C[C@]43C)[C@@H]2C1	–	inactive	–
C[C@@H]1O[C@@H](O[C@@H]2[C@@H](O)[C@H](O[C@@H]3[C@@H](O)[C@@H](O)[C@H](O[C@H]4[C@H](OC(=O)[C@]56CCC(C)(C)C[C@H]5C5=CC[C@@H]7[C@@]8(C)C[C@H](O)[C@H](O[C@@H]9O[C@H](CO)[C@@H](O)[C@H](O)[C@H]9O)[C@@](C)(CO)[C@@H]8[C@H](O)C[C@@]7(C)[C@]5(C)C[C@H]6O)OC[C@H](O)[C@@H]4O)O[C@H]3C)OC[C@H]2O)[C@H](O)[C@H](O)[C@H]1O [ARGANINE C]	Non-toxic	–	100
